Laboratory results from ChEMBL document CHEMBL1201862, “PubChem BioAssay data set” (2004).
Values belong to the compound of their own block, whether it stands above or below them. Calls of active or inactive are those of the source.

How the values were obtained:
Cytochrome P450 2D6 = Cytochrome P450 2D6 (Homo sapiens, UniProt P10635);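 note: CYP2D6 member of a cytochrome P450 panel assay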
Cytochrome P450 3A4 = Cytochrome P450 3A4 (Homo sapiens, UniProt P08684);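 note: CYP3A4 tested as one member of a cytochrome P450 panel screen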
Cytochrome P450 2C9 = Cytochrome P450 2C9 (Homo sapiens, UniProt P11712)
[1] = HEp-2 cell cytotoxicity, dose response, cytotoxicity control for RSV inhibitor project, HTS (AID 2410); type: functional; settings: human respiratory syncytial virus
[2] = inhibitors of intracellular T. cruzi replication, confirmation, NIH3T3 host cells, beta-gal luminescence (AID 2044); type: functional, cell-based;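 note: intracellular parasites grown in NIH/3T3 mouse fibroblasts as host cells; luminescent beta-galactosidase reporter signal from transgenic T. cruzi replicating inside host cells; inhibitors lower the luminescence signal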
[3] = cytotoxicity toward NIH3T3 fibroblasts, dose response, counter-screen, cell-based, ATP luminescence, mouse fibroblasts (AID 2010); type: functional;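 note: cells exposed to compound for about 90 hours before reading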
Cytochrome P450 1A2 = target: T1, Cytochrome P450 1A2 (Homo sapiens, UniProt P05177);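 note: PubChem cytochrome P450 panel assay, CYP1A2 panel member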
T1 sequence (P05177 whole entry): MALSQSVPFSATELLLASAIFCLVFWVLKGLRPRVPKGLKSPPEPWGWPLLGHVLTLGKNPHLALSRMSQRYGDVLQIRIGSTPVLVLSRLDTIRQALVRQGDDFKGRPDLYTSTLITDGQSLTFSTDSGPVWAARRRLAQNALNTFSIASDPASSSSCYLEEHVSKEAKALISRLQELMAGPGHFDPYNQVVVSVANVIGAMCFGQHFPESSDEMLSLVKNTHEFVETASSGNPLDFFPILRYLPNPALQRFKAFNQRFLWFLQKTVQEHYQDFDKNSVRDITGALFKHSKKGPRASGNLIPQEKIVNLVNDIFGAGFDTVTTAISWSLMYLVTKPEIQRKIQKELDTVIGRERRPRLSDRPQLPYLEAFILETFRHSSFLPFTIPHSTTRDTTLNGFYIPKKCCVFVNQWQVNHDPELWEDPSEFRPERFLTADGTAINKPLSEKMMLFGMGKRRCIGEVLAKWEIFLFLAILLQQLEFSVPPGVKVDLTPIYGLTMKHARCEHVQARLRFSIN

[4] = test system: Streptococcus sp. 'group A'; assay: growth inhibition of control SK(-) GAS strain, dose response, counter-screen for streptokinase expression inhibitor project, luminescence, kanamycin, BacTiterGlo, confirmation (AID 1900); type: functional, organism-based
Streptococcus = assay: Group A Streptococcus viability loss, dose response, counter-screen for streptokinase expression inhibitor project, luminescence, BacTiterGlo (AID 1915); type: functional, organism-based;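 note: potency for reduction of bacterial viability or growth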

Sequence of Cytochrome P450 3A4 (P08684 whole entry): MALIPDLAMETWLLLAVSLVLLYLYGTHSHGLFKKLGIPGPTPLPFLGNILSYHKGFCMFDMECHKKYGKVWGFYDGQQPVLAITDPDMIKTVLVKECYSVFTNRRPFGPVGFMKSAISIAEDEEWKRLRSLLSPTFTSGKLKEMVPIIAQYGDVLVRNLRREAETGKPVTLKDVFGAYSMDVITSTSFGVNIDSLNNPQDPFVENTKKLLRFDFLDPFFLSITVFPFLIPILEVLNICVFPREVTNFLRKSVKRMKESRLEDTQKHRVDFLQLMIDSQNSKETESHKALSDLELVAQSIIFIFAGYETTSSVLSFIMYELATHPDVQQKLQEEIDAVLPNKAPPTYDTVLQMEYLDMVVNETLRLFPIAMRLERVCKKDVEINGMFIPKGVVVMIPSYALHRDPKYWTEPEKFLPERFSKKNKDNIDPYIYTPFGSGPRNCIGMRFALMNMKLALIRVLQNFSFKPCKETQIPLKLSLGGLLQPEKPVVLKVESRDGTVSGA
Sequence of Cytochrome P450 2C9 (P11712 whole entry): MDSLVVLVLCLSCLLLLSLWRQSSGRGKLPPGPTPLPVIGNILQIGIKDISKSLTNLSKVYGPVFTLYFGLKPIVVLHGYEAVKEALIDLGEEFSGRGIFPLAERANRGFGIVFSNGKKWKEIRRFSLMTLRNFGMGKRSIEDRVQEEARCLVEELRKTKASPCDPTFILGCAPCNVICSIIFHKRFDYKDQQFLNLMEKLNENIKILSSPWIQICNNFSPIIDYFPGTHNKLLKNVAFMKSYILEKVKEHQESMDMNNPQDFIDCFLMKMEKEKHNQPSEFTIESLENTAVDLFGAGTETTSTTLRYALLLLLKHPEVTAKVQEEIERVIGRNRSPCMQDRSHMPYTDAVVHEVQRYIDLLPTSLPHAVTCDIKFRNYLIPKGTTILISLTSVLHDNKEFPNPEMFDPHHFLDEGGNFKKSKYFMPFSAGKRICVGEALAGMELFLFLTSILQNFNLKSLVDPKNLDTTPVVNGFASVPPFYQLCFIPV
Sequence of Cytochrome P450 2D6 (P10635 whole entry): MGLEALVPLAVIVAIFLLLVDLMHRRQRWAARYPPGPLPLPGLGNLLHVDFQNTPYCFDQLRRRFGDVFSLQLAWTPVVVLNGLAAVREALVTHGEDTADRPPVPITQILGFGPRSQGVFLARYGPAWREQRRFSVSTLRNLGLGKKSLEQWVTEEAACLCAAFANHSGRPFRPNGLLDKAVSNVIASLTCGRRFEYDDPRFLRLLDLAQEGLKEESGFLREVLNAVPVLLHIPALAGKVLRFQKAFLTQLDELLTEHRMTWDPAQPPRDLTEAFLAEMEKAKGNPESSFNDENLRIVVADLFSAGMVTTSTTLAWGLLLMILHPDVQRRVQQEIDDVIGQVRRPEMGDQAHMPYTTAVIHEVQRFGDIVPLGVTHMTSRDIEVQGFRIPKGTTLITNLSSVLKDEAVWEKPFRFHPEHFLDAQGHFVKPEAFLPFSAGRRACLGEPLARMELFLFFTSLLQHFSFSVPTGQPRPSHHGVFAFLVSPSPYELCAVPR

SMILES: O=C(c1ccc(Cl)cc1)N1CCN(c2ccc([N+](=O)[O-])c(NCc3cccnc3)c2)CC1
CC50 [1]: 35.8 µM (active)

SMILES: CCCN(CC#CC(O)(c1ccccc1)c1cccnc1)CCC (centres undefined)
EC50 [2]: 0.463 µM (active)
EC50 [3]: > 60 µM (not active)

SMILES: O=C1Nc2ccccc2CCC1Sc1nnc(-c2ccc(Cl)cc2)s1 (centres undefined)
CC50 [1]: 3.7 µM (active)

SMILES: CC1CCc2sc3nc(NCc4ccco4)n4ncnc4c3c2C1 (centres undefined)
CC50 [1]: 30.3 µM (active)

SMILES: Cc1ccc(NC2=NC(=O)CS2)cc1
CC50 [1]: 34.3 µM (active)

SMILES: COCc1ccc(CN2CCCC(CCC(=O)NCc3cccc(OC)c3)C2)o1 (centres undefined)
EC50 [2]: 0.914 µM (active)
EC50 [3]: > 60 µM (not active)

SMILES: CCC(C)c1ccc(NC(=O)c2cccs2)cc1 (centres undefined)
CC50 [1]: < 0.1 µM (active)

SMILES: c1ccc2c(N3CCOCC3)nc(-c3ccncc3)nc2c1
CC50 [1]: 42.6 µM (active)

SMILES: O=C(NCCN1CCN(C(=O)C(c2ccccc2)c2ccccc2)CC1)C(=O)Nc1ccccc1
AC50 (Cytochrome P450 2C9): 12.6 µM (inconclusive)

SMILES: O=C(NCc1cccnc1)c1c(O)c2cccc3c2n(c1=O)CCC3
CC50 [1]: 22.8 µM (active)

SMILES: Cn1nc([N+](=O)[O-])nc1Oc1ccccc1N
EC50 [2]: 1.08 µM (active)
EC50 [3]: > 60 µM (not active)

SMILES: CC1CCc2nc(NC(=O)c3ccc(S(=O)(=O)N4CCCc5ccccc54)cc3)sc2C1 (centres undefined)
EC50 [2]: 1.42 µM (active)
EC50 [3]: > 60 µM (not active)

SMILES: C[C@H]1[C@H](C)CC[C@]2(C(=O)O)CC[C@]3(C)C(=CC[C@@H]4[C@@]5(C)CC[C@H](O)C(C)(C)[C@@H]5CC[C@]43C)[C@H]12 [URSOLIC ACID]
CC50 [1]: 28.4 µM (active)
EC50 [4]: 0.949 µM (active)
EC50 (Streptococcus): 0.88 µM (active)

SMILES: Cc1ccc2occ(/C=N/NC(N)=S)c(=O)c2c1
CC50 [1]: > 50 µM (active)

SMILES: COc1ccc2nc(O)c(CNc3cccc(C)c3)cc2c1
CC50 [1]: 6.97 µM (active)

SMILES: Cc1nc(N)sc1-c1csc(Nc2cccc(O)c2)n1
CC50 [1]: 48.4 µM (active)

Now from value to compound:

AC50 (Cytochrome P450 2D6): 12.6 µM (inconclusive)
SMILES: CCCCOC(=O)c1ccc(O)cc1 [BUTYLPARABEN]

AC50 (Cytochrome P450 2D6): 15.8 µM (inconclusive)
SMILES: CCOC(=O)c1cc2sc(C)cc2n1CCCN1C(=O)c2ccccc2C1=O

AC50 (Cytochrome P450 3A4): 15.8 µM (inconclusive)
SMILES: O=c1cnc2cnc(N3CCOCC3)nc2n1CCc1ccccc1

AC50 (Cytochrome P450 2C9): 2.82 µM (inconclusive)
SMILES: Cc1ccc(NC(=O)CC2CS(=O)(=O)CC2CC(=O)Nc2ccc(C)c(C)c2)cc1C (centres undefined)

AC50 (Cytochrome P450 3A4): 28.2 µM (inconclusive)
SMILES: CCC(=O)NC(=S)N1CCN(c2ccc([N+](=O)[O-])cc2Cl)CC1

AC50 (Cytochrome P450 2C9): 3.98 µM (inconclusive)
AC50 (Cytochrome P450 2D6): 3.16 µM (inconclusive)
SMILES: CO[C@@H]1/C=C\O[C@@]2(C)Oc3c(C)c(O)c4c(c3C2=O)/C(=N/[C@H]2CC[C@H](O)O[C@@H]2C)C=C(NC(=O)/C(C)=C\C(=O)[C@@H]2C[C@@H]2[C@@H](O)[C@H](C)[C@@H](O)[C@H](C)[C@H](OC(C)=O)[C@@H]1C)C4=O

AC50 (Cytochrome P450 2D6): 39.8 µM (inconclusive)
SMILES: c1cncc(-c2ccc3ncnc(NCCN4CCOCC4)c3c2)c1

AC50 (Cytochrome P450 3A4): 3.98 µM (inconclusive)
SMILES: CO[C@H]1COC(=O)C/C=C\[C@@H](C)COC(=O)[C@@H](OCc2ccccc2)/C=C\[C@@H]1C

AC50 (Cytochrome P450 2C9): 5.01 µM (inconclusive)
AC50 (Cytochrome P450 2D6): 39.8 µM (inconclusive)
SMILES: O=C(Oc1ccccc1)N1CCC2(CCCN(c3ccccn3)C2)CC1

AC50 (Cytochrome P450 1A2): 2.82 µM (inconclusive)
SMILES: COc1cc(C(=O)NC(=S)Nc2cccc(-c3cc4ccccc4oc3=O)c2)cc(OC)c1OC

AC50 (Cytochrome P450 3A4): 7.94 µM (inconclusive)
AC50 (Cytochrome P450 2D6): 39.8 µM (inconclusive)
SMILES: CC(=O)N1CCC2(CCCN(c3cccc(-c4ccccc4)c3)C2)CC1

AC50 (Cytochrome P450 3A4): 3.55 µM (inconclusive)
SMILES: Cc1cc(C)c(C#N)c(OCC(=O)c2ccc(Br)cc2)n1

AC50 (Cytochrome P450 2D6): 22.4 µM (inconclusive)
SMILES: Cc1ccc(/C=C/C2=Cc3c(sc(NC(=O)CSc4nnc(N)[nH]4)c3C#N)C(C)(C)C2)o1

AC50 (Cytochrome P450 2C9): 11.2 µM (inconclusive)
SMILES: Cc1cc(NC(=S)Nc2ccccc2)ccc1Br

AC50 (Cytochrome P450 2C9): 25.1 µM (inconclusive)
AC50 (Cytochrome P450 3A4): 20 µM (inconclusive)
SMILES: Cc1ccc([N+](=O)[O-])cc1/N=C(/c1cccc([N+](=O)[O-])c1)N1CCOCC1

AC50 (Cytochrome P450 2C9): 12.6 µM (inconclusive)
SMILES: O=C(c1cccs1)n1nc(-c2ccc(Cl)cc2)nc1NCc1ccco1

AC50 (Cytochrome P450 2D6): 12.6 µM (inconclusive)
SMILES: O=C1CC(N2CCN(CCc3ccccn3)CC2)C(=O)N1c1ccc(Cl)cc1 (centres undefined)

AC50 (Cytochrome P450 2D6): 3.16 µM (inconclusive)
SMILES: COc1cc(/C=C(/C#N)c2nc3ccccc3[nH]2)ccc1Oc1ncccc1[N+](=O)[O-]
